# According to article PMC3656107, “Polymorphisms in the F8 Gene and MHC-II Variants as Risk Factors for the Development of Inhibitory Anti-Factor VIII Antibodies during the Treatment of Hemophilia A: A Computational Assessment” (PLoS Computational Biology, 2013):
# Legend:
# MHC-II DRB1*03:01 [1] = biological target: T1, MHC-II DRB1*03:01 (Homo sapiens, UniProt P01903+P01911, A100K/A102G/A103R/A169T/F55Y/I96L/K41T/L162R/M171V/P40S/Q125H/Q178H/Q39Y/R42S/S66N/T106N/T262R/W38E/Y61H); test: Cell-free REVEAL class II binding assay; settings: signal of test peptide as percentage of allele-specific positive control peptide, fluorescence, conformation-specific monoclonal antibody
# Summary of the method: (§1)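 Scores express peptide-dependent fluorescence as percent of a reference T-cell epitope for the same DRB1 allele. Detection relies on antibody binding to native peptide–MHC-II conformation, and a lower-affinity intermediate control peptide monitors assay performance.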
# MHC-II DRB1*04:01 [2] = biological target: T2, MHC-II DRB1*04:01 (Homo sapiens, UniProt P01903+P01911, A100K/A169T/F76Y/I96L/K127E/L162R/M171V/N62H/P40V/Q125Y/R42H/S133A/S149N/S66Y/V115G/V209L/W38E); test: Cell-free REVEAL class II binding assay; settings: signal of test peptide as percentage of allele-specific positive control peptide, fluorescence, conformation-specific monoclonal antibody
# Summary of the method: as §1
# MHC-II DRB1*07:01 [3] = biological target: T3, MHC-II DRB1*07:01 (Homo sapiens, UniProt P01903+P01911, A100R/A102G/A103Q/D57E/D86V/E43K/F76Y/K127E/L162R/M171V/P40G/Q125H/Q99D/R33Q/R42Y/R54Q/S133A/S66F/T210M/V115G/Y107V/Y59L/Y89S); test: Cell-free REVEAL class II binding assay; settings: signal of test peptide as percentage of allele-specific positive control peptide, fluorescence, conformation-specific monoclonal antibody
# Summary of the method: as §1
# MHC-II DRB1*11:01 [4] = biological target: T4, MHC-II DRB1*11:01 (Homo sapiens, UniProt P01903+P01911, A100R/A169T/A87E/I96F/K41T/L162R/M171V/P40S/Q125H/Q178H/Q39Y/Q99D/R42S/S66Y/T262R/V115G/W38E); test: Cell-free REVEAL class II binding assay; settings: signal of test peptide as percentage of allele-specific positive control peptide, fluorescence, conformation-specific monoclonal antibody
# Summary of the method: as §1
# MHC-II DRB1*15:01 [5] = biological target: T5, MHC-II DRB1*15:01 (Homo sapiens, UniProt P01903+P01911); test: Cell-free REVEAL class II binding assay; settings: signal of test peptide as percentage of allele-specific positive control peptide, fluorescence, conformation-specific monoclonal antibody
# T5 construct: purchased ProImmune
# Summary of the method: as §1
# MHC-II DRB1*15:03 [6] = biological target: T6, MHC-II DRB1*15:03 (Homo sapiens, UniProt P01903+P01911, Y59H); test: Cell-free REVEAL class II binding assay; settings: signal of test peptide as percentage of allele-specific positive control peptide, fluorescence, conformation-specific monoclonal antibody
# T6 construct: purchased ProImmune
# Summary of the method: as §1
# MHC-II DRB1*03:01 [7] = biological target: T1, MHC-II DRB1*03:01; test: Cell-free REVEAL class II stability assay; settings: half-life of peptide-MHC-II complex (h, capped at 120) x Binding Score / 100, conformational ELISA
# Summary of the method: (§2)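 Readout is a conformational ELISA with anti-HLA antibody, scoring assembly or percent denaturation of peptide–MHC-II complexes sampled at timed points. Association ran 96 hr at 10°C. The reported stability score is half-life multiplied by Binding Score, divided by 100.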
# MHC-II DRB1*04:01 [8] = biological target: T2, MHC-II DRB1*04:01; test: Cell-free REVEAL class II stability assay; settings: half-life of peptide-MHC-II complex (h, capped at 120) x Binding Score / 100, conformational ELISA
# Summary of the method: as §2
# MHC-II DRB1*07:01 [9] = biological target: T3, MHC-II DRB1*07:01; test: Cell-free REVEAL class II stability assay; settings: half-life of peptide-MHC-II complex (h, capped at 120) x Binding Score / 100, conformational ELISA
# Summary of the method: as §2
# MHC-II DRB1*11:01 [10] = biological target: T4, MHC-II DRB1*11:01; test: Cell-free REVEAL class II stability assay; settings: half-life of peptide-MHC-II complex (h, capped at 120) x Binding Score / 100, conformational ELISA
# Summary of the method: as §2
# MHC-II DRB1*15:01 [11] = biological target: T5, MHC-II DRB1*15:01; test: Cell-free REVEAL class II stability assay; settings: half-life of peptide-MHC-II complex (h, capped at 120) x Binding Score / 100, conformational ELISA
# Summary of the method: as §2
# MHC-II DRB1*15:03 [12] = biological target: T6, MHC-II DRB1*15:03; test: Cell-free REVEAL class II stability assay; settings: half-life of peptide-MHC-II complex (h, capped at 120) x Binding Score / 100, conformational ELISA
# Summary of the method: as §2
# T4 sequence (P01903 26-254 limits assumed, other chains not shown): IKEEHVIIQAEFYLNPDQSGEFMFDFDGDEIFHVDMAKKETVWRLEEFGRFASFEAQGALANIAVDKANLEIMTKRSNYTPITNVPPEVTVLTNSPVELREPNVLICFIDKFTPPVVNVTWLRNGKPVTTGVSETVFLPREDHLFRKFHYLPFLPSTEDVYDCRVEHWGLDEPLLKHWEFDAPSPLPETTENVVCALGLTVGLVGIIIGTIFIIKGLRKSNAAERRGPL
# T6 sequence (P01903 26-254, other chains not shown): as the sequence (P01903 26-254 limits assumed, other chains not shown) above
# T1 sequence (P01903 26-254 limits assumed, other chains not shown): as above
Sequence,Binding Score (MHC-II DRB1*03:01 [1]) [%],Binding Score (MHC-II DRB1*04:01 [2]) [%],Binding Score (MHC-II DRB1*07:01 [3]) [%],Binding Score (MHC-II DRB1*11:01 [4]) [%],Binding Score (MHC-II DRB1*15:01 [5]) [%],Binding Score (MHC-II DRB1*15:03 [6]) [%],Stability Index (MHC-II DRB1*03:01 [7]),Stability Index (MHC-II DRB1*04:01 [8]),Stability Index (MHC-II DRB1*07:01 [9]),Stability Index (MHC-II DRB1*11:01 [10]),Stability Index (MHC-II DRB1*15:01 [11]),Stability Index (MHC-II DRB1*15:03 [12])
SLHAVGVSYWKASEG [synthetic wild type FVIII 15 mer peptide],1.3,1.3,0.2,0.3,18.1,0.7,0.1,0.1,0.0,0.0,1.4,0.0
SQFIIMYSLDGKKWQ [synthetic wild type FVIII 15 mer peptide],4.8,38.1,0.0,100.8,1455.4,14.6,0.5,11.8,0.0,27.9,1746.5,16.4
"SRPYNIYPHGITDVR [synthetic wild type FVIII 15 mer peptide, region of ns-SNP R484H]",0.1,0.2,0.0,12.0,0.1,0.2,0.0,0.0,0.0,0.4,0.1,0.1
"SYDGAYAPVLQDFRS [synthetic wild type FVIII 15 mer peptide, region of ns-SNP D1241E]",1.7,0.4,0.0,0.1,0.0,0.0,0.1,0.0,0.0,0.0,0.0,0.0
SYWKASEGAEYDDQT [synthetic wild type FVIII 15 mer peptide],0.0,1.5,0.0,2.8,0.0,0.0,0.0,0.2,0.0,0.0,0.0,0.0
TKSDPRCLTRYYSSF [synthetic wild type FVIII 15 mer peptide],12.6,0.8,0.0,23.1,37.9,26.8,2.4,0.1,0.0,0.8,45.5,1.6
TLTLFPFSGETVFMS [synthetic wild type FVIII 15 mer peptide],0.0,7.3,0.0,0.1,41.4,0.4,0.0,0.6,0.0,0.0,2.3,0.0
TRYLRIHPQSWVHQI [synthetic wild type FVIII 15 mer peptide],0.0,8.2,34.0,49.4,819.2,25.4,0.0,0.9,40.8,5.3,983.1,30.5
TVEDGPTKSDPRCLT [synthetic wild type FVIII 15 mer peptide],0.2,0.2,0.0,0.0,0.0,0.0,0.0,0.0,0.0,0.0,0.0,0.0
VVNSLDPPLLTRYLR [synthetic wild type FVIII 15 mer peptide],2.7,1.2,0.0,0.2,95.8,2.2,0.4,0.1,0.0,0.0,7.8,0.1
YIRLHPTHYSIRSTL [synthetic wild type FVIII 15 mer peptide],7.9,59.3,17.2,174.3,1195.7,234.7,2.4,61.0,20.6,30.2,1434.9,281.7
